Test results taken from article PMC9045388, “Identification of a KPC Variant Conferring Resistance to Ceftazidime-Avibactam from ST11 Carbapenem-Resistant Klebsiella pneumoniae Strains” (Microbiology Spectrum, 2022).

Target: T1, KPC-2 (Klebsiella pneumoniae, UniProt Q9F663)
T1 construct: untagged, full gene in pCR-BluntII-Topo (pTOPO-KPC-2), expressed in E. coli TOP10; ion exchange and gel filtration
Assay: steady-state hydrolysis, UV-Vis at […] nm
Assay type: biochemical
Conditions: 100 mM sodium phosphate, pH 7.0

T1 sequence (Q9F663 25-293 limits assumed): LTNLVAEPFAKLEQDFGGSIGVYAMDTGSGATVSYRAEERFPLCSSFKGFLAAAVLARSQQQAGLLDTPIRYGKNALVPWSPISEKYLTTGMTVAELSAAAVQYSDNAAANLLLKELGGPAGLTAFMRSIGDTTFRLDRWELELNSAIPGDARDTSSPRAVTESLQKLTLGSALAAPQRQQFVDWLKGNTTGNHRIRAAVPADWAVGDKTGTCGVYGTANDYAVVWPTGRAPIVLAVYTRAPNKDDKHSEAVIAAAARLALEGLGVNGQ

With `O=C(Cc1cccs1)N[C@@H]1C(=O)N2C(C(=O)O)=C(/C=C/c3ccc([N+](=O)[O-])cc3[N+](=O)[O-])CS[C@H]12` [nitrocefin] the Km was 17.9 µM.
